{
  "source": "patent US9914932B2",
  "about": "“Agrobacterium-mediated transformation of lipomyces” (Battelle Memorial Institute, priority 2014, dated 2018)",
  "key": {"[1]": {"system": "L. lipofer (NRRL Y-11555)", "assay": "Antibiotic growth suppression on SC medium agar plates", "assay_type": "cell-based, Lipomyces lipofer", "conditions": "100 mg/l, 30° C., FIG. 3", "description": "(§1) For effective selection of transgene expression in Lipomyces strains, several antibiotics were chosen to examine their effects on Lipomyces growth on yeast synthetic complete (SC, Sunrise Science Products, San Diego, Calif.) and yeast extract-peptone-detrose (YPD) medium plates, which included phosphinothricin ammonium (basta), geneticin (G418), hygromycin B (hyg), pyrithiamine and Zeocin (Zeo). Two day old Lipomyces cells grown in YPD liquid culture were used for evaluation of the antibiotic selection on the agar plates of SC or YPD. The original cells were diluted sequentially in 1:10 ratio with dH2O for four times and 10 μl cells from original culture and each dilution were spotted onto the proper agar medium plates. The plates were incubated in 30° C. incubator for 3 days. The inhibition effects of selected antibiotics on the selected plate were documented with Nikon D300s SLR digital camera (Nikon Inc., Melville, N.Y.) or the stereomicroscope-Leica MZ16 (Leica Microsystems, Buffalo Grove, Ill.).\n(§2) About 5 to 10 colonies of 4 day old Lipomyces strains (except L. lipofer NRRL Y-11555 that required additional 4 days growth and more colonies due to its slow growth) grown on YPD medium agar plates were transferred into a 50 ml YPD liquid flask culture and grown at 30° C. and 200 rpm for 50 hrs. […]"}, "[2]": {"system": "L. doorenjongii (NRRL Y-27504)", "assay": "Antibiotic growth suppression on SC medium agar plates", "assay_type": "cell-based, Lipomyces doorenjongii", "conditions": "100 mg/l, 30° C., FIG. 3", "description": "as §1, §2"}, "Lipomyces strains": {"system": "Lipomyces strains", "assay": "Hygromycin B inhibition on Aspergillus minimal medium", "assay_type": "cell-based, Lipomyces sp.", "conditions": "10 mg/l"}, "L. starkeyi": {"system": "L. starkeyi", "assay": "Antibiotic growth suppression on yeast synthetic complete (SC) medium agar plates", "assay_type": "cell-based, Lipomyces starkeyi", "conditions": "30° C.", "description": "as §1, §2"}, "[3]": {"system": "all L. starkeyi strains and Lipomyces species", "assay": "Hygromycin B growth suppression on YPD agar plates", "assay_type": "cell-based, Lipomyces sp.", "conditions": "30° C., all strains and species except L. suomiensis NRRL Y-17356, FIG. 4", "description": "as §1, §2"}, "[4]": {"system": "L. suomiensis strain NRRL Y-17356", "assay": "Hygromycin B growth suppression on YPD agar plates", "assay_type": "cell-based, Lipomyces suomiensis", "conditions": "30° C., L. suomiensis NRRL Y-17356, FIG. 4", "description": "as §1, §2"}, "[5]": {"system": "parent Lipomyces strains (Y-)", "assay": "Hygromycin resistance of parent Lipomyces cells, 1/10 series dilutions on YPD agar plates", "assay_type": "cell-based, Lipomyces sp.", "conditions": "10 or 25 mg/l hygromycin B with 250 mg/L cefotaxime, FIG. 10", "method": "The hygromycin resistance of parent and transformed Lipomyces cells in a 1/10 series dilutions were compared on the same YPD agar plates with either 10 or 25 mg/l hygromycin B (hyg10 or hyg25, respectively) and 250 mg/L cefotaxime. […] The integration of pTef1-hph transgene expression cassette (FIG. 11A) was also confirmed by Southern blotting analysis which indicated 1 to 2 copies of the gene were inserted (FIG. 11B)."}},
  "data": [
    {"smiles": "CN[C@H]1C[C@@H](N)[C@H](O)[C@@H](O[C@@H]2O[C@H](CO)[C@H](O)[C@@H]3OC4(O[C@H]23)O[C@H]([C@@H](N)CO)[C@H](O)[C@H](O)[C@H]4O)[C@@H]1O", "note": "(some centres unmarked) [hygromycin B]", "values": [
      {"measurement": "growth suppression of L. lipofer (NRRL Y-11555)", "setting": "[1]", "value": "effectively suppress the growth"},
      {"measurement": "growth suppression of L. doorenjongii (NRRL Y-27504)", "setting": "[2]", "value": "effectively suppress the growth"},
      {"measurement": "inhibition of Lipomyces strains", "setting": "Lipomyces strains", "value": "effective inhibition"},
      {"measurement": "growth selection (growth suppression) of L. starkeyi", "setting": "L. starkeyi; 100 mg/l hygromycin B, FIG. 2", "value": "effective"},
      {"measurement": "growth suppression of three other L. starkeyi strains (NRRL Y-27493, NRRL Y-27494, NRRL Y-27495)", "setting": "L. starkeyi; 100 mg/l, FIG. 3", "value": "effectively suppress the growth"},
      {"measurement": "concentration sufficient to suppress the growth", "setting": "[3]", "value": 2.5, "unit": "mg/L"},
      {"measurement": "concentration needed to suppress the growth", "setting": "[4]", "value": "at least 10 mg/l"},
      {"measurement": "growth of parent strains under hygromycin selection", "setting": "[5]", "value": "severely suppressed"}
    ]}
  ]
}
